The structures appear in SMILES notation.

The values below come from ChEMBL document CHEMBL5303573, “Mapping human microbiome drug metabolism by gut bacteria and their genes” (Nature, 2019).

The nature of data set [1]: The drug is tested on Escherichia coli strain: BW25113 for biotransformation. The drug concentrations were measured before and after a 12-h incubation by liquid-chromatography-coupled mass spectrometry (LC–MS). Conditions: 2 µM.
For data set [2] the following is noted: limosilactobacillus reuteri cf48-3a, 12 h, 2 µM.
Description: The drug is tested on Lactobacillus reuteri CF48-3A strain: BEI HM-102 for biotransformation. The drug concentrations were measured before and after a 12-h incubation by liquid-chromatography-coupled mass spectrometry (LC–MS)
Data set [3] is described as follows: The drug is tested on Enterococcus faecalis strain: V583 for biotransformation. The drug concentrations were measured before and after a 12-h incubation by liquid-chromatography-coupled mass spectrometry (LC–MS). Conditions: 2 µM.
Data set [4] is described as follows: The drug is tested on Anaerotruncus colihominis strain: DSM17241 for biotransformation. The drug concentrations were measured before and after a 12-h incubation by liquid-chromatography-coupled mass spectrometry (LC–MS). Conditions: 2 µM.
Data set [5] is described as follows: The drug is tested on Bacteroides caccae strain: ATCC43185 for biotransformation. The drug concentrations were measured before and after a 12-h incubation by liquid-chromatography-coupled mass spectrometry (LC–MS). Conditions: 2 µM.
Data set [6] is described as follows: The drug is tested on Parabacteroides merdae strain: ATCC43184 for biotransformation. The drug concentrations were measured before and after a 12-h incubation by liquid-chromatography-coupled mass spectrometry (LC–MS). To be noted: 2 µM.
For data set [7] the following is noted: bacteroides thetaiotaomicron, 12 h, 2 µM.
Description: The drug is tested on Bacteroides thetaiotaomicron strain: 7330 for biotransformation. The drug concentrations were measured before and after a 12-h incubation by liquid-chromatography-coupled mass spectrometry (LC–MS)
The nature of data set [8]: The drug is tested on Bacteroides uniformis strain: ATCC8492 for biotransformation. The drug concentrations were measured before and after a 12-h incubation by liquid-chromatography-coupled mass spectrometry (LC–MS). To be noted: 2 µM.
A short description of data set [9]: The drug is tested on Bacteroides finegoldii strain: DSM17565 for biotransformation. The drug concentrations were measured before and after a 12-h incubation by liquid-chromatography-coupled mass spectrometry (LC–MS). Conditions: 2 µM.
Data set [10] is described as follows: The drug is tested on Bacteroides sp. WH2 strain: WH2 for biotransformation. The drug concentrations were measured before and after a 12-h incubation by liquid-chromatography-coupled mass spectrometry (LC–MS). To be noted: bacteroides sp. wh2, 12 h, 2 µM.
For data set [11] the following is noted: bacteroides fragilis, 12 h, 2 µM.
Description: The drug is tested on Bacteroides fragilis strain: DS-208 for biotransformation. The drug concentrations were measured before and after a 12-h incubation by liquid-chromatography-coupled mass spectrometry (LC–MS)
Data set [12] in a line: The drug is tested on Collinsella intestinalis strain: DSM13280 for biotransformation. The drug concentrations were measured before and after a 12-h incubation by liquid-chromatography-coupled mass spectrometry (LC–MS). To be noted: 2 µM.
For data set [13] the following is noted: segatella copri, 12 h, 2 µM.
Description: The drug is tested on Prevotella copri strain: DSM18205 for biotransformation. The drug concentrations were measured before and after a 12-h incubation by liquid-chromatography-coupled mass spectrometry (LC–MS)
A short description of data set [14]: The drug is tested on Anaerococcus hydrogenalis strain: DSM7454 for biotransformation. The drug concentrations were measured before and after a 12-h incubation by liquid-chromatography-coupled mass spectrometry (LC–MS). Conditions: 2 µM.
A short description of data set [15]: The drug is tested on Providencia rettgeri strain: DSM1131 for biotransformation. The drug concentrations were measured before and after a 12-h incubation by liquid-chromatography-coupled mass spectrometry (LC–MS). The format is ADME. Details: dose 2 uM, timepoint 0 vs 12 hours. Conditions: 2 µM.
The conditions of data set [16]: bacteroides eggerthii, 12 h, 2 µM.
Description: The drug is tested on Bacteroides eggerthii strain: DSM20697 for biotransformation. The drug concentrations were measured before and after a 12-h incubation by liquid-chromatography-coupled mass spectrometry (LC–MS)
Data set [17] can be described thus: The drug is tested on Subdoligranulum variabile strain: DSM15176 for biotransformation. The drug concentrations were measured before and after a 12-h incubation by liquid-chromatography-coupled mass spectrometry (LC–MS). Conditions: 2 µM.
For data set [18] the following is noted: bacteroides thetaiotaomicron, 12 h, 2 µM. This is another data set of the same source.
Description: The drug is tested on Bacteroides thetaiotaomicron strain: VPI-5482 for biotransformation. The drug concentrations were measured before and after a 12-h incubation by liquid-chromatography-coupled mass spectrometry (LC–MS)
Data set [19] in a line: The drug is tested on Clostridium symbiosum strain: ATCC14940 for biotransformation. The drug concentrations were measured before and after a 12-h incubation by liquid-chromatography-coupled mass spectrometry (LC–MS). To be noted: 2 µM.

For the compound `CCCCCCOC(=O)/N=C(/N)c1ccc(NCc2nc3cc(C(=O)N(CCC(=O)OCC)c4ccccn4)ccc3n2C)cc1.CS(=O)(=O)O` [DABIGATRAN ETEXILATE MESYLATE], the “Bacterial Biotransformation” value in data set [1], in data set [2], in [3], in data set [4], in data set [5] and in [6] was “Compound NOT metabolized” throughout. Besides, the “Bacterial Biotransformation” value in data set [7], in data set [8], in data set [9], in data set [10], in [11] and in data set [12] was “Compound NOT metabolized” in each case. Moreover, the “Bacterial Biotransformation” value in data set [13], in [14], in data set [15], in data set [16], in data set [17] and in data set [18] was “Compound NOT metabolized” in each case. The “Bacterial Biotransformation” value in [19] is on record as “Compound NOT metabolized”.

In the case of `C[C@]12CCC(=O)C=C1[C@@H]1C[C@@H]1[C@H]1[C@@H]3[C@@H]4C[C@@H]4[C@@]4(CCC(=O)O4)[C@@]3(C)CC[C@@H]12` [DROSPIRENONE], the “Bacterial Biotransformation” value in data set [1], in data set [2], in data set [3], in [4], in data set [5] and in data set [7] was “Compound NOT metabolized” in each case. The “Bacterial Biotransformation” value is reported as “Compound metabolized” in [8]; “Compound NOT metabolized” in data set [9]; “Compound NOT metabolized” in data set [10]; “Compound NOT metabolized” in data set [11]; “Compound NOT metabolized” in [12]; “Compound NOT metabolized” in [13]. The “Bacterial Biotransformation” value in data set [14], in data set [16], in [17] and in [19] was “Compound NOT metabolized” throughout.

As to `CC12CC3CC(C)(C1)CC(N)(C3)C2` [MEMANTINE], the “Bacterial Biotransformation” value in data set [1], in data set [3], in [4], in data set [5], in data set [6] and in data set [7] was “Compound NOT metabolized” throughout. For the same compound, the “Bacterial Biotransformation” value in data set [8], in data set [9], in [10], in data set [11], in data set [12] and in data set [14] was “Compound NOT metabolized” each time. Besides, the “Bacterial Biotransformation” value in [16], in data set [17], in [18] and in data set [19] was “Compound NOT metabolized” in each case.

Regarding `O=C1N=C([O-])NC1(c1ccccc1)c1ccccc1.[Na+]` [PHENYTOIN SODIUM], the “Bacterial Biotransformation” value in data set [1] was “Compound NOT metabolized”; in data set [2], “Compound NOT metabolized”; in [3], “Compound NOT metabolized”; in data set [4] it was “Compound NOT metabolized”; in [6] it was “Compound metabolized”; in data set [8] it was “Compound metabolized”. In addition, the “Bacterial Biotransformation” value in [9] is reported as “Compound NOT metabolized”; in [10], “Compound metabolized”; in data set [11], “Compound NOT metabolized”; in [13], “Compound NOT metabolized”; in [14] it was “Compound NOT metabolized”; in data set [15], “Compound NOT metabolized”. The entries for the “Bacterial Biotransformation” value in data set [17], in [18] and in [19] were “Compound NOT metabolized”, “Compound NOT metabolized” and “Compound metabolized”, respectively.

As to `CS(=O)(=O)O.OC(CCN1CCCCC1)(c1ccccc1)c1ccccc1` [PRIDINOL METHANESULFONATE], the “Bacterial Biotransformation” value in data set [1], in data set [2], in [4], in [5], in data set [6] and in data set [7] was “Compound NOT metabolized” each time. Moreover, the “Bacterial Biotransformation” value in [9], in [10], in data set [11], in data set [12], in [13] and in data set [14] was “Compound NOT metabolized” throughout. In addition, the “Bacterial Biotransformation” value in data set [15], in data set [16], in data set [17], in data set [18] and in [19] was “Compound NOT metabolized” throughout.

`Cc1cn([C@H]2C[C@H](N=[N+]=[N-])[C@@H](CO)O2)c(=O)[nH]c1=O` [ZIDOVUDINE]: the “Bacterial Biotransformation” value in data set [1], in data set [2], in [3], in data set [5], in data set [6] and in data set [7] was “Compound NOT metabolized” in each case. Also, the “Bacterial Biotransformation” value in data set [9] was “Compound NOT metabolized”; in data set [10] it was “Compound NOT metabolized”; in [13], “Compound NOT metabolized”; in data set [14], “Compound metabolized”; in [15], “Compound NOT metabolized”; in data set [16] it was “Compound metabolized”. Further, the “Bacterial Biotransformation” value in [17], in data set [18] and in data set [19] was “Compound NOT metabolized” throughout.

In the case of `Cc1ccc(-c2nc3ccc(C)cn3c2CC(=O)N(C)C)cc1` [ZOLPIDEM], the “Bacterial Biotransformation” value in data set [1], in data set [2], in data set [3], in [4], in data set [5] and in data set [6] was “Compound NOT metabolized” throughout. Further, the “Bacterial Biotransformation” value in data set [7], in data set [8], in data set [9], in data set [10], in data set [11] and in data set [12] was “Compound NOT metabolized” throughout. The “Bacterial Biotransformation” value in [13], in data set [14], in data set [15], in [17] and in data set [19] was “Compound NOT metabolized” each time.
